Reference: PubChem BioAssay AID2842 (Southern Research Institute, 2010)
≈ marks a conversion by molar mass, not a printed value.

Each compound was assayed on M. tuberculosis H37Rv growth inhibition (assay: Mycobacterium tuberculosis H37Rv growth inhibition, putative kinase inhibitor library, confirmatory dose response (AID 2842);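 note: bacteria incubated one week before Alamar blue readout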).

Which IC90 does the source give for `COc1cccc(C(=O)Nc2nc3c(s2)CC(C)CC3)c1` (centres undefined) here?
Its IC90 is 14.1 µg/mL (≈ 46.7 µM).

Which IC90 does the source give for `Cc1ccc(-c2nnc(NC(=O)c3ccccc3Cl)o2)c(C)c1` here?
The IC90 was under 0.2 µg/mL.

How did the IC90 turn out when `O=C(NCC(c1cccs1)N1CCc2ccccc2C1)c1ccc2c(c1)OCO2` (centres undefined) was run?
Its IC90 is 23.9 µg/mL (≈ 58.7 µM).

How did the IC90 turn out when `COc1cc(/C=C(\C#N)c2nc(-c3ccccc3)cs2)cc([N+](=O)[O-])c1O` was run?
Its IC90 is 54.6 µg/mL (≈ 144 µM).

With `O=C(Nc1nnc(-c2ccc(Br)cc2)o1)c1sc2ccccc2c1Cl` as the compound, how does the IC90 read?
Its IC90 is 6.7 µg/mL (≈ 15.4 µM).

With `Cc1cccc(C(=O)Nc2nnc(-c3ccccn3)o2)c1` as the compound, how does the IC90 read?
The IC90 was 19.3 µg/mL (≈ 68.8 µM).

For `COc1ccc2sc(Nc3nc(-c4ccccn4)cs3)nc2c1`, which IC90 is on record?
Its IC90 is 1.59 µg/mL (≈ 4.67 µM).

Which IC90 does the source give for `O=C(Nc1nnc(-c2ccc3c(c2)OCCO3)o1)c1ccccc1Cl` here?
The IC90 was 4.5 µg/mL (≈ 12.6 µM).

For `O=C(c1ccc(NC2=C(Cl)C(=O)N(Cc3ccccc3)C2=O)cc1)N1CCCCC1`, which IC90 is on record?
The IC90 was 6.24 µg/mL (≈ 14.7 µM).

`COc1cc(OC)cc(C(=O)Nc2nnc(-c3ccc(Br)cc3)o2)c1` was tested. Which IC90 did it give?
Its IC90 is 52.3 µg/mL (≈ 129 µM).

Which IC90 does the source give for `Clc1cccc(N2CCN(c3nc(Nc4ccccc4)c4nccnc4n3)CC2)c1` here?
Its IC90 is 4.58 µg/mL (≈ 11 µM).

With `COc1ccc(CNc2nccn(-c3cc(C)c(Cl)cc3OC)c2=O)cc1` as the compound, how does the IC90 read?
Its IC90 is 18.1 µg/mL (≈ 46.8 µM).

With `COc1ccc(-c2nnc(NC(=O)c3ccccc3C)o2)cc1` as the compound, how does the IC90 read?
The IC90 was 9.97 µg/mL (≈ 32.2 µM).

`Cc1cccc2sc(NNC(=O)c3cc4ccccc4oc3=O)nc12` was tested. Which IC90 did it give?
The IC90 was 2.94 µg/mL (≈ 8.37 µM).

For `Cc1cc(NC(=O)NCCCSc2nc3ccccc3o2)no1`, which IC90 is on record?
Its IC90 is 29.1 µg/mL (≈ 87.5 µM).

For `CCc1cccc(OCC(O)Cn2c(NCc3ccccc3)nc3c2c(=O)[nH]c(=O)n3C)c1` (centres undefined), which IC90 is on record?
Its IC90 is 22.1 µg/mL (≈ 49.1 µM).

`Cc1nc2cc(NC(=O)Nc3ccc(Cl)cc3)ccc2n1-c1ccccc1` was tested. Which IC90 did it give?
The IC90 was 6.97 µg/mL (≈ 18.5 µM).

With `COc1ccc(-c2nc(C(N)=O)c3[nH]c(=O)n(-c4ccc(C(C)(C)C)cc4)c3n2)c(OC)c1` as the compound, how does the IC90 read?
The IC90 was 17.3 µg/mL (≈ 38.7 µM).

Which IC90 does the source give for `O=C(Nc1nnc(-c2ccc(Cl)s2)o1)C1CCCCC1` here?
The IC90 was 6.45 µg/mL (≈ 20.7 µM).

`Cc1cc(C)cc(OCCCn2c(CO)nc3ccccc32)c1` was tested. Which IC90 did it give?
The IC90 was 14 µg/mL (≈ 45 µM).

With `COc1cc(C(=O)Nc2nnc(-c3ccc4c(c3)CCCC4)o2)cc(OC)c1OC` as the compound, how does the IC90 read?
Its IC90 is 44.2 µg/mL (≈ 108 µM).

How did the IC90 turn out when `Cc1ccc(-c2nnc(SCC(=O)Nc3cc(C)on3)o2)cc1` was run?
The IC90 was 3.95 µg/mL (≈ 12 µM).

For `O=C(CN1CCOCC1)Nc1ncc(Cc2cc(Cl)cc(Cl)c2)s1`, which IC90 is on record?
Its IC90 is 14.9 µg/mL (≈ 38.5 µM).

With `COC(=O)c1c(NC(=O)Cc2cccc3ccccc23)sc2c1CC(C)(C)NC2(C)C` as the compound, how does the IC90 read?
The IC90 was 3.73 µg/mL (≈ 8.54 µM).

With `O=C(NCCSc1c(-c2ccccc2)[nH]c2ccccc12)c1cc2ccccc2oc1=O` as the compound, how does the IC90 read?
The IC90 was 2.71 µg/mL (≈ 6.15 µM).

`Cc1cc(Cl)ccc1N/C=C(\C#N)c1nc2ccccc2[nH]1` was tested. Which IC90 did it give?
The IC90 was 23.9 µg/mL (≈ 77.4 µM).

With `O=C(Nc1nnc(-c2ccccc2Cl)o1)c1nc2ccccc2s1` as the compound, how does the IC90 read?
The IC90 was 1.75 µg/mL (≈ 4.9 µM).

How did the IC90 turn out when `Cc1cc(Cl)cc2sc(N(CCCn3ccnc3)C(=O)c3ccco3)nc12` was run?
The IC90 was under 0.2 µg/mL.

For `CN(C)S(=O)(=O)c1ccc(C(=O)Nc2nnc(-c3cc(Cl)ccc3Cl)o2)cc1`, which IC90 is on record?
The IC90 was 3.89 µg/mL (≈ 8.81 µM).

How did the IC90 turn out when `Cc1cc(C)c2nc(NNC(=O)c3cc4ccccc4oc3=O)sc2c1` was run?
The IC90 was 2.16 µg/mL (≈ 5.91 µM).

For `COc1cccc(-c2nnc(NC(=O)c3cccc(F)c3)o2)c1`, which IC90 is on record?
The IC90 was under 0.2 µg/mL.

For `CCS(=O)(=O)c1cccc(C(=O)Nc2nc3ccc(C(C)C)cc3s2)c1`, which IC90 is on record?
The IC90 was 11.3 µg/mL (≈ 29.1 µM).

How did the IC90 turn out when `NC(=O)c1c(NC(=O)c2ccc([N+](=O)[O-])s2)sc2c1CCN(Cc1ccccc1)C2` was run?
Its IC90 is 0.46 µg/mL (≈ 1.04 µM).

With `CCc1cccc2sc(N(CCCn3ccnc3)C(=O)c3ccc(OC)c(OC)c3)nc12` as the compound, how does the IC90 read?
Its IC90 is 13.9 µg/mL (≈ 30.9 µM).

With `CC(=O)N1CCc2c(sc(NC(=O)c3ccc(-c4ccccc4)cc3)c2C(N)=O)C1` as the compound, how does the IC90 read?
Its IC90 is 20.4 µg/mL (≈ 48.7 µM).

How did the IC90 turn out when `C=CCn1c(=NC(=O)c2ccc([N+](=O)[O-])s2)sc2cc(S(N)(=O)=O)ccc21` was run?
The IC90 was under 0.2 µg/mL.

Which IC90 does the source give for `CCc1ccc(-c2nnc3c4cc5c(cc4n(Cc4ccccc4F)cc2-3)OCCO5)cc1` here?
Its IC90 is 6.34 µg/mL (≈ 14.4 µM).

With `Cc1n[nH]c(=O)nc1N/N=C/c1cccc(OCc2ccccc2Cl)c1` as the compound, how does the IC90 read?
The IC90 was 35.9 µg/mL (≈ 97.2 µM).

How did the IC90 turn out when `O=C(NNc1nc2ccc(Cl)cc2s1)c1nc2ccccc2s1` was run?
The IC90 was 3.15 µg/mL (≈ 8.73 µM).

With `COc1ccc(-c2nnc(Nc3nc4c(OC)cccc4s3)o2)cc1` as the compound, how does the IC90 read?
The IC90 was 23.6 µg/mL (≈ 66.5 µM).

How did the IC90 turn out when `CCOc1ccc(C(=O)Nc2nnc(-c3ccccn3)o2)cc1` was run?
The IC90 was 1.03 µg/mL (≈ 3.32 µM).

For `COC(=O)c1c(NC(=O)C(c2ccccc2)c2ccccc2)sc2c1CC(C)(C)NC2(C)C`, which IC90 is on record?
The IC90 was 6.07 µg/mL (≈ 13.1 µM).

How did the IC90 turn out when `CCCCOc1cccc(C(=O)Nc2nnc(-c3cc(Cl)ccc3Cl)o2)c1` was run?
Its IC90 is 12.9 µg/mL (≈ 31.8 µM).

Which IC90 does the source give for `Cc1ccc(Nc2nc(N3CCN(c4ccccc4)CC3)nc3nccnc23)cc1C` here?
The IC90 was 32 µg/mL (≈ 77.7 µM).
